System: anti-chitosan polyclonal antibody (CTSpAb)
Assay: Competitive ELISA with 3-mer to 6-mer CTS oligosaccharide as competitive substance
Type: binding, fowl
Settings: CTSpAb diluted 8,000-fold
Method: The Molecular Size of CTS which can be assayed by CTSpAb was determined through a competitive ELISA employing a 3-mer to 6-mer CTS oligosaccharide (product of Seikagaku Corporation) as a competitive substance.
To CTS, 1% (v/v) acetic acid was added so as to adjust the concentration to 2 μg/mL. The thus-prepared solution was added to a plate at 50 μL/well, and the plate was allowed to stand overnight at 4° C. The plate was washed twice with 9.57 mM PBS (pH: 7.5) at 300 μL/well, and then 25% BA/9.57 mM PBS (pH: 7.5) was added thereto at 200 μL/well. The plate was allowed to stand for 1 hour, to thereby fabricate CTS-immobilized plate. The plate was washed repeatedly four times with PBS-T at 300 μL/well. To the plate, a solution prepared by adding 10% BA/PBS-T to the CTS oligosaccharide so as to adjust the concentration to 0.00064 to 10 μg/mL, or 10% BA/PBS-T (CTS oligosaccharide-free) was added to the plate at 100 μL/well. Then, CTSpAb diluted 8,000-fold with 10% BA/PBS-T was added to the plate at 100 μL/well, and the plate was allowed to stand for 1 hour. The plate was washed repeatedly four times with PBS-T at 300 μL/well. Subsequently, a product of peroxidase-labeled anti-fowl IgY (IgG) (H+L) antibody 5,000-fold diluted with 10% BA/PBS-T was added to the plate at 100 μL/well, and the plate was allowed to stand for 1 hour. The plate was washed repeatedly four times with PBS-T at 300 μL/well, and then, TMB reagent was added to the plate at 100 μL/well, and the plate was allowed to stand for 30 minutes. Then, 1 N HCl was added to the plate at 100 μL/well. The absorbance of each well of the plate was measured by means of a well reader MP-96 at a measurement wavelength of 450 nm and a reference wavelength of 630 nm.
As is clear from Table 3, binding of CTSpAb to CTS on the plate was inhibited by 3- to 6-mer CTS oligosaccharide.

[1] = CTS oligosaccharide 0.00064 μg/mL
[2] = CTS oligosaccharide 0.0032 μg/mL
[3] = CTS oligosaccharide 0.016 μg/mL

| Structure (SMILES) | % Inhibition [1] [%] | % Inhibition [2] [%] | % Inhibition [3] [%] | % Inhibition (CTS oligosaccharide 0.08 μg/mL) [%] | % Inhibition (CTS oligosaccharide 0.4 μg/mL) [%] | % Inhibition (CTS oligosaccharide 2 μg/mL) [%] | % Inhibition (CTS oligosaccharide 10 μg/mL) [%] |
| --- | --- | --- | --- | --- | --- | --- | --- |
| N[C@H]1[C@H](O[C@H]2[C@H](O)[C@@H](N)[C@H](O[C@H]3[C@H](O)[C@@H](N)C(O)O[C@@H]3CO)O[C@@H]2CO)O[C@H](CO)[C@@H](O)[C@@H]1O (stereo partly drawn) [3-mer] | 6 | 9 | 11 | 16 | 24 | 32 | 44 |
| N[C@H]1[C@H](O[C@H]2[C@H](O)[C@@H](N)[C@H](O[C@H]3[C@H](O)[C@@H](N)[C@H](O[C@H]4[C@H](O)[C@@H](N)[C@H](O[C@H]5[C@H](O)[C@@H](N)C(O)O[C@@H]5CO)O[C@@H]4CO)O[C@@H]3CO)O[C@@H]2CO)O[C@H](CO)[C@@H](O)[C@@H]1O (stereo partly drawn) [5-mer] | 28 | 42 | 55 | 65 | 69 | 70 | 70 |
| N[C@H]1[C@H](O[C@H]2[C@H](O)[C@@H](N)[C@H](O[C@H]3[C@H](O)[C@@H](N)[C@H](O[C@H]4[C@H](O)[C@@H](N)[C@H](O[C@H]5[C@H](O)[C@@H](N)[C@H](O[C@H]6[C@H](O)[C@@H](N)C(O)O[C@@H]6CO)O[C@@H]5CO)O[C@@H]4CO)O[C@@H]3CO)O[C@@H]2CO)O[C@H](CO)[C@@H](O)[C@@H]1O (stereo partly drawn) [6-mer, chitosan hexamer] | 25 | 39 | 51 | 63 | 66 | 68 | 68 |

Reference: US10955413B2, “Method for measuring zygomycota and reagent kit for measuring zygomycota” (SEIKAGAKU CORPORATION, priority 2015, dated 2021)
